{
  "source": "patent US9775877B2",
  "about": "“Combinations with a backbone-cyclized peptide” (POLYPHOR AG, priority 2012, dated 2017)",
  "tested_on": "Pseudomonas aeruginosa clinical isolate PAX11045",
  "test": "Efficacy in murine pneumonia model, compound 1 in combination with tigecycline (Example 1)",
  "format": "in vivo",
  "description": "Colony counts in lung were determined at 20 hours post treatment.\nFresh overnight colonies of PAX11045 from a 5% Horse Blood Agar plate were suspended in 0.9% sterile saline to approximately 10^8 CFU/ml and further diluted to approximately […]. Female mice (DBA/2, […], 18-22 g, Chales River) were anesthetized with 0.08 ml of Zoletil and inoculated via the nose with a pipette with 0.1 ml of the bacteria suspension containing approximately 10^6 CFU. 4 hours after inoculation, the mice were treated orally with 45 μl neurophen (20 mg ibuprofen/ml corresponding to approximately 30 mg/kg) as pain relief.\n[…] As positive control Ciprofloxacin was used in the same manner with a fixed dose of 20 mg/kg.\nColony counts were determined post inoculation at 4 hours (untreated mice) and 24 hours (treated and vehicle-only treated mice). Immediately after the mice were sacrificed, the lungs were collected and frozen at −20° C. After thawing, the organs were homogenized in 1 ml 0.9% saline. Each sample was then 10 fold diluted in saline and 20 μl spots were applied on blood agar plates. All agar plates were incubated 18-24 hours at 35° C. in ambient air.",
  "key": {"[1]": {"settings": "compound 1 in presence of 12.5 mg/kg tigecycline, mice, murine lungs"}},
  "note": "Non-standard residues stand in square brackets, D forms with d. dDab = NCC[C@@H](N)C(=O)O; Orn = NCCC[C@H](N)C(=O)O; Dab = NCC[C@H](N)C(=O)O",
  "data": [
    {"compound": "CN(C)c1cc(NC(=O)CNC(C)(C)C)c(O)c2c1C[C@H]1C[C@H]3[C@H](N(C)C)C(O)=C(C(N)=O)C(=O)[C@@]3(O)C(O)=C1C2=O", "note": "[tigecycline, reference compound]", "values": [
      {"measurement": "effect on bacterial loads", "setting": "tigecycline 12.5 mg/kg alone, s.c. single dose 3 h post infection, lung", "result": "no effect"}
    ]},
    {"compound": "cyclo(TWI[Dab][Orn][dDab][Dab]W[Dab][Dab]AS[dP]P) [compound 1]", "values": [
      {"measurement": "Top level", "setting": "compound 1 in presence of 12.5 mg/kg tigecycline (s.c., 3 h post infection), mice, murine lungs", "result": 0.13, "unit": "log10 CFU/ml"},
      {"measurement": "2 log killing dose", "setting": "[1]", "result": 2.1, "unit": "mg/kg"},
      {"measurement": "Bottom level", "setting": "[1]", "result": "−2.37", "unit": "log10 CFU/ml"},
      {"measurement": "Emax", "setting": "[1]", "result": 2.5, "unit": "log10 CFU/ml"},
      {"measurement": "Static dose", "setting": "[1]", "result": 0.74, "unit": "mg/kg"},
      {"measurement": "ED50", "setting": "compound 1 in presence of a fixed dose of tigecycline (12.5 mg/kg), mice, s.c., murine lungs, colony counts 20 h post treatment", "result": 1.33, "unit": "mg/kg"}
    ]}
  ]
}
